What was measured:
Details in all cases: 25 µM pACP, 24 h, maintenance medium 1% FBS, ratio of viability to vehicle (PBS), at least three technical repetitions
HT29 = assay: MTT primary screening of anticancer activity, HT29; format: cell-based, Human
Outline: (§1)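 Single-dose screen: 25 µM peptide (final), 24 h, 1% FBS maintenance medium, cells ~60% confluent; MTT viability read-out.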

Caco2 = assay: MTT primary screening of anticancer activity, Caco2; format: cell-based, Human
Outline: as §1

HCT116 = assay: MTT primary screening of anticancer activity, HCT116; format: cell-based, Human
Outline: as §1

CT26 = assay: MTT primary screening of anticancer activity, CT26; format: cell-based, Murine
Outline: as §1

MDA-MB-231 = assay: MTT primary screening of anticancer activity, MDA-MB-231; format: cell-based
Outline: as §1

MDA-MB-436 = assay: MTT primary screening of anticancer activity, MDA-MB-436; format: cell-based
Outline: as §1

MDA-MB-453 = assay: MTT primary screening of anticancer activity, MDA-MB-453; format: cell-based
Outline: as §1

MDA-MB-468 = assay: MTT primary screening of anticancer activity, MDA-MB-468; format: cell-based
Outline: as §1

SK-BR-3 = assay: MTT primary screening of anticancer activity, SK-BR-3; format: cell-based
Outline: as §1

BT474 = assay: MTT primary screening of anticancer activity, BT474; format: cell-based
Outline: as §1

T47D = assay: MTT primary screening of anticancer activity, T47D; format: cell-based
Outline: as §1

EFM192A = assay: MTT primary screening of anticancer activity, EFM192A; format: cell-based
Outline: as §1

B16 = assay: MTT primary screening of anticancer activity, B16; format: cell-based, Mouse
Outline: as §1

MCF7 = assay: MTT primary screening of anticancer activity, MCF7; format: cell-based
Outline: as §1

Hela = assay: MTT primary screening of anticancer activity, Hela; format: cell-based, Human
Outline: as §1

LCC = assay: MTT primary screening of anticancer activity, LCC; format: cell-based
Outline: as §1

## NTGGIQKIQPLRKTDPLLAPCVSGRIGCPGRRCS [pACP1412]
HT29
  Survival rate of cancer cells in primary screening: 1.00
Caco2
  Survival rate of cancer cells in primary screening: 1.00
HCT116
  Survival rate of cancer cells in primary screening: 1.00
CT26
  Survival rate of cancer cells in primary screening: 1.00
MDA-MB-231
  Survival rate of cancer cells in primary screening: 1.00
MDA-MB-436
  Survival rate of cancer cells in primary screening: 1.00
MDA-MB-453
  Survival rate of cancer cells in primary screening: 1.00
MDA-MB-468
  Survival rate of cancer cells in primary screening: 1.00
SK-BR-3
  Survival rate of cancer cells in primary screening: 1.00
BT474
  Survival rate of cancer cells in primary screening: 1.00
T47D
  Survival rate of cancer cells in primary screening: 0.74
EFM192A
  Survival rate of cancer cells in primary screening: 1.00
B16
  Survival rate of cancer cells in primary screening: 0.80
MCF7
  Survival rate of cancer cells in primary screening: 1.00
Hela
  Survival rate of cancer cells in primary screening: 1.00
LCC
  Survival rate of cancer cells in primary screening: 1.00

## PPSTRIISKVYPFKKHARGGWAIPGMMCSQMVER [pACP1472]
HT29
  Survival rate of cancer cells in primary screening: 1.00
Caco2
  Survival rate of cancer cells in primary screening: 1.00
HCT116
  Survival rate of cancer cells in primary screening: 1.00
CT26
  Survival rate of cancer cells in primary screening: 1.00
MDA-MB-231
  Survival rate of cancer cells in primary screening: 1.00
MDA-MB-436
  Survival rate of cancer cells in primary screening: 1.00
MDA-MB-453
  Survival rate of cancer cells in primary screening: 1.00
MDA-MB-468
  Survival rate of cancer cells in primary screening: 0.76
SK-BR-3
  Survival rate of cancer cells in primary screening: 1.00
BT474
  Survival rate of cancer cells in primary screening: 1.00
T47D
  Survival rate of cancer cells in primary screening: 1.00
EFM192A
  Survival rate of cancer cells in primary screening: 1.00
B16
  Survival rate of cancer cells in primary screening: 1.00
MCF7
  Survival rate of cancer cells in primary screening: 1.00
Hela
  Survival rate of cancer cells in primary screening: 1.00
LCC
  Survival rate of cancer cells in primary screening: 1.00

## PVCRKEKKDGKRCVARYVEHFAGKDRRMQA [pACP1505]
HT29
  Survival rate of cancer cells in primary screening: 1.00
Caco2
  Survival rate of cancer cells in primary screening: 1.00
HCT116
  Survival rate of cancer cells in primary screening: 1.00
CT26
  Survival rate of cancer cells in primary screening: 1.00
MDA-MB-231
  Survival rate of cancer cells in primary screening: 1.00
MDA-MB-436
  Survival rate of cancer cells in primary screening: 1.00
MDA-MB-453
  Survival rate of cancer cells in primary screening: 1.00
MDA-MB-468
  Survival rate of cancer cells in primary screening: 1.00
SK-BR-3
  Survival rate of cancer cells in primary screening: 1.00
BT474
  Survival rate of cancer cells in primary screening: 1.00
T47D
  Survival rate of cancer cells in primary screening: 0.76
EFM192A
  Survival rate of cancer cells in primary screening: 1.00
B16
  Survival rate of cancer cells in primary screening: 0.78
MCF7
  Survival rate of cancer cells in primary screening: 1.00
Hela
  Survival rate of cancer cells in primary screening: 1.00
LCC
  Survival rate of cancer cells in primary screening: 1.00

## QESDAKKYGVGGYFQGLLSQ [pACP1529]
HT29
  Survival rate of cancer cells in primary screening: 1.00
Caco2
  Survival rate of cancer cells in primary screening: 1.00
HCT116
  Survival rate of cancer cells in primary screening: 1.00
CT26
  Survival rate of cancer cells in primary screening: 1.00
MDA-MB-231
  Survival rate of cancer cells in primary screening: 1.00
MDA-MB-436
  Survival rate of cancer cells in primary screening: 1.00
MDA-MB-453
  Survival rate of cancer cells in primary screening: 1.00
MDA-MB-468
  Survival rate of cancer cells in primary screening: 1.00
SK-BR-3
  Survival rate of cancer cells in primary screening: 1.00
BT474
  Survival rate of cancer cells in primary screening: 1.00
T47D
  Survival rate of cancer cells in primary screening: 0.75
EFM192A
  Survival rate of cancer cells in primary screening: 1.00
B16
  Survival rate of cancer cells in primary screening: 1.00
MCF7
  Survival rate of cancer cells in primary screening: 1.00
Hela
  Survival rate of cancer cells in primary screening: 1.00
LCC
  Survival rate of cancer cells in primary screening: 1.00

## RCPCKGNTHRRYSIMFCNFDCASLLKLLCGFFGKC [pACP1621]
HT29
  Survival rate of cancer cells in primary screening: 1.00
Caco2
  Survival rate of cancer cells in primary screening: 1.00
HCT116
  Survival rate of cancer cells in primary screening: 1.00
CT26
  Survival rate of cancer cells in primary screening: 1.00
MDA-MB-231
  Survival rate of cancer cells in primary screening: 1.00
MDA-MB-436
  Survival rate of cancer cells in primary screening: 1.00
MDA-MB-453
  Survival rate of cancer cells in primary screening: 1.00
MDA-MB-468
  Survival rate of cancer cells in primary screening: 1.00
SK-BR-3
  Survival rate of cancer cells in primary screening: 1.00
BT474
  Survival rate of cancer cells in primary screening: 1.00
T47D
  Survival rate of cancer cells in primary screening: 0.72
EFM192A
  Survival rate of cancer cells in primary screening: 0.79
B16
  Survival rate of cancer cells in primary screening: 0.79
MCF7
  Survival rate of cancer cells in primary screening: 1.00
Hela
  Survival rate of cancer cells in primary screening: 1.00
LCC
  Survival rate of cancer cells in primary screening: 1.00

## RLIVRMKTLYEKAAQMEIKIVENRFTRHEKKNKINRIKRKREK [pACP1722]
HT29
  Survival rate of cancer cells in primary screening: 0.63
Caco2
  Survival rate of cancer cells in primary screening: 0.70
HCT116
  Survival rate of cancer cells in primary screening: 1.00
CT26
  Survival rate of cancer cells in primary screening: 0.35
MDA-MB-231
  Survival rate of cancer cells in primary screening: 1.00
MDA-MB-436
  Survival rate of cancer cells in primary screening: 0.27
MDA-MB-453
  Survival rate of cancer cells in primary screening: 0.11
MDA-MB-468
  Survival rate of cancer cells in primary screening: 1.00
SK-BR-3
  Survival rate of cancer cells in primary screening: 0.63
BT474
  Survival rate of cancer cells in primary screening: 0.14
T47D
  Survival rate of cancer cells in primary screening: 0.29
EFM192A
  Survival rate of cancer cells in primary screening: 1.00
B16
  Survival rate of cancer cells in primary screening: 0.56
MCF7
  Survival rate of cancer cells in primary screening: 0.31
Hela
  Survival rate of cancer cells in primary screening: 0.13
LCC
  Survival rate of cancer cells in primary screening: 1.00

## RLRPVILCKKRRLAAGRKKVGRQKKRKASAEGKEGRSPKKKKDGCW [pACP1739]
HT29
  Survival rate of cancer cells in primary screening: 1.00
Caco2
  Survival rate of cancer cells in primary screening: 1.00
HCT116
  Survival rate of cancer cells in primary screening: 1.00
CT26
  Survival rate of cancer cells in primary screening: 1.00
MDA-MB-231
  Survival rate of cancer cells in primary screening: 1.00
MDA-MB-436
  Survival rate of cancer cells in primary screening: 0.51
MDA-MB-453
  Survival rate of cancer cells in primary screening: 0.18
MDA-MB-468
  Survival rate of cancer cells in primary screening: 0.39
SK-BR-3
  Survival rate of cancer cells in primary screening: 0.53
BT474
  Survival rate of cancer cells in primary screening: 0.21
T47D
  Survival rate of cancer cells in primary screening: 0.40
EFM192A
  Survival rate of cancer cells in primary screening: 1.00
B16
  Survival rate of cancer cells in primary screening: 1.00
MCF7
  Survival rate of cancer cells in primary screening: 0.28
Hela
  Survival rate of cancer cells in primary screening: 0.16
LCC
  Survival rate of cancer cells in primary screening: 1.00

## RPITNVGGFLEVNGKGVKPLHGNKFKCTVSGSFLASGWFTLELERVL [pACP1757]
HT29
  Survival rate of cancer cells in primary screening: 1.00
Caco2
  Survival rate of cancer cells in primary screening: 1.00
HCT116
  Survival rate of cancer cells in primary screening: 1.00
CT26
  Survival rate of cancer cells in primary screening: 1.00
MDA-MB-231
  Survival rate of cancer cells in primary screening: 1.00
MDA-MB-436
  Survival rate of cancer cells in primary screening: 1.00
MDA-MB-453
  Survival rate of cancer cells in primary screening: 1.00
MDA-MB-468
  Survival rate of cancer cells in primary screening: 1.00
SK-BR-3
  Survival rate of cancer cells in primary screening: 1.00
BT474
  Survival rate of cancer cells in primary screening: 1.00
T47D
  Survival rate of cancer cells in primary screening: 0.76
EFM192A
  Survival rate of cancer cells in primary screening: 1.00
B16
  Survival rate of cancer cells in primary screening: 0.79
MCF7
  Survival rate of cancer cells in primary screening: 1.00
Hela
  Survival rate of cancer cells in primary screening: 1.00
LCC
  Survival rate of cancer cells in primary screening: 1.00
